Laboratory results from patent US3954775A, “Thiazolo(5,4-f)quinoline-8-carboxylic acid derivatives” (Sumitomo Chemical Company, Limited, priority 1973, dated 1976).
≈ marks a conversion by molar mass, not a printed value. Where two headings read alike, the source gives them in different places.

Key:
[1] = system: Bacillus subtilis PCI 219; assay: in vitro antibacterial activity, tube dilution method; assay type: cell-based; conditions: PCI219, read-out: In vitro Antibacterial Activities
Text: (§1) The in vitro antibacterial activities were compared with 6-ethyl-2,3,6,9-tetrahydro-3-methyl-2,9-dioxothiazolo[5,4-f]quinoline-8-carboxylic acid (hereinafter Compound (D)) and nalidixic acid (hereinafter Compound (E)) using the tube dilution method.

Escherichia coli NIHJ = assay: as above; assay type: cell-based; conditions: read-out: In vitro Antibacterial Activities
Text: as §1

Proteus vulgaris HX-19 = assay: as above; assay type: cell-based
Text: as §1

[2] = system: Proteus mirabilis GN-2425; assay: as above; assay type: cell-based
Text: as §1

[3] = system: Diplococcus pneumoniae Newfeld; assay: as above; assay type: cell-based; conditions: Streptococcus pneumoniae, read-out: In vitro Antibacterial Activities
Text: as §1

[4] = system: Pseudomonas aeruginosa 104; assay: as above; assay type: cell-based
Text: as §1

Sarcina lutea PCI 1001 = assay: as above; assay type: cell-based; conditions: Micrococcus luteus, PCI1001, read-out: In vitro Antibacterial Activities
Text: as §1

[5] = system: Staphylococcus aureus 209-P; assay: as above; assay type: cell-based; conditions: read-out: In vitro Antibacterial Activities
Text: as §1

[6] = system: Staphylococcus albus 1200 A; assay: as above; assay type: cell-based; conditions: read-out: In vitro Antibacterial Activities
Text: as §1

[7] = system: Klebsiella pneumoniae PCI 602; assay: as above; assay type: cell-based
Text: as §1

[8] = system: Streptococcus hemolyticus A-1; assay: as above; assay type: cell-based; conditions: Streptococcus pyogenes, A1, read-out: In vitro Antibacterial Activities
Text: as §1

[9] = system: gram-positive bacteria such as Staphylococcus, Streptococcus, Diplococcus; assay: in vitro antibacterial activity on gram-positive bacteria, tube dilution method; assay type: cell-based; conditions: result in words
Text: as §1
The antibacterial spectrum of 3-benzyl-6-benzyloxy-2,3,6,9-tetrahydro-2,9-dioxothiazolo[5,4-f]quinoline- 8-carboxylic acid (hereinafter Compoud (B)) is different from the other compounds.

gram-negative bacteria = assay: in vitro antibacterial activity on gram-negative bacteria, tube dilution method; assay type: cell-based; conditions: for antibacterial activities on gram-negative bacteria: tube dilution method, result in words
Text: as §1

Escherichia coli No. 34 = assay: in vivo protection of infected mice, oral; conditions: for ED50: Escherichia coli, intraperitoneal infection, oral 1 hour and 6 hours after infection, E. coli No. 34
Experimental: (§2) The mice were inoculated intraperitoneally with the test organisms in 5% gastric mucin. The test compounds were suspended in 0.5% carboxymethylcellulose and administered orally 1 hour and 6 hours after infection.

Escherichia coli No. 37 = assay: in vivo protection of infected mice, oral; conditions: intraperitoneal infection, oral 1 hour and 6 hours after infection, E. coli No. 37
Experimental: as §2

[10] = system: Proteus mirabilis GN-2425; assay: in vivo protection of infected mice, oral; conditions: for ED50: Proteus mirabilis, GN2425, intraperitoneal infection, oral 1 hour and 6 hours after infection, P. mirabilis GN-2425
Experimental: as §2

[11] = concentrations in serum of mice after a single oral dose; assay type: in vivo; conditions: single oral dose of 50 mg/kg
Experimental: […] concentrations in serum of Compound (A) and Compound (D) were determined in the mice after a single oral dose of 50 mg/kg. […] The peak value for Compound (A) was about 12 times higher than that of Compound (D).

[12] = preliminary toxicity in rats, 9 days oral; assay type: in vivo, female rats of Spraugue-Dewlty-SLC strain; conditions: 1000 to 2000 mg/kg/day orally for 9 days
Experimental: To 6-week old female rats of Spraugue-Dewlty-SLC strain, 1000 to 2000 mg/kg/day of Compound A were administered orally for 9 days.

[13] = urinary excretion in fasting rats after a single oral dose; assay type: in vivo; conditions: single oral dose of 50 mg/kg
Experimental: Urinary excretions in fasting rats after a single oral dose of 50 mg/kg were also examined.
Compound (A) was excreted in the urine about 7 times faster than Compound (D). Recovery rates of Compound (A) in the urine were 2.0% after 24 hours.

[14] = prior art statement in words; cited from earlier work
[15] = prior art statement in words; cited from earlier work; remark: listed apart in the source
organism tested = assay: in vivo protection of infected mice, organisms tested overall; conditions: oral, result in words
Experimental: as §2

Aspergillus niger = assay: antifungal activity on Sabourand agar; assay type: cell-based; conditions: read-out: minimum inhibitory concentration
Experimental: (§3) The activities of ethyl 2,9-dichlorothiazolo[5,4-f]quinoline-8-carboxylate-6-oxide (Compound (F)) on Trichophyton rubrum and Aspergillus niger were tested on Sabourand agar. […] The minimum inhibitory concentrations were 0.78 mcg/ml for Trichophyton rubrum and 25 mcg/ml for Aspergillus niger.

Trichophyton rubrum = assay: antifungal activity on Sabourand agar; assay type: cell-based; conditions: read-out: minimum inhibitory concentration
Experimental: as §3

[16] = system: Trichophyton rubrum and Aspergillus niger; assay: antifungal activity on Sabourand agar, fungi tested overall; assay type: cell-based
Experimental: as §3

[17] = Escherichia coli NIHJ, tube dilution method
[18] = HX19, Proteus vulgaris HX-19, tube dilution method, read-out: In vitro Antibacterial Activities
[19] = GN2425, Proteus mirabilis GN-2425, tube dilution method, read-out: In vitro Antibacterial Activities
[20] = Pseudomonas aeruginosa 104, tube dilution method, read-out: In vitro Antibacterial Activities
[21] = Staphylococcus aureus 209-P, tube dilution method
[22] = PCI602, Klebsiella pneumoniae PCI 602, tube dilution method, read-out: In vitro Antibacterial Activities

SMILES | MIC [1] [µg/mL] | MIC (Escherichia coli NIHJ; [17]) [µg/mL] | MIC (Proteus vulgaris HX-19; [18]) [µg/mL] | MIC [2, 19] [µg/mL] | MIC [4, 20] [µg/mL] | MIC [5, 21] [µg/mL] | MIC [7, 22] [µg/mL] | antibacterial activities on gram-negative bacteria (gram-negative bacteria) | ED50 (Escherichia coli No. 34) [mg/kg] | ED50 (Escherichia coli No. 37) [mg/kg] | ED50 [10] [mg/kg] | further results
O=C(O)c1cn(OCc2ccccc2)c2ccc3c(sc(=O)n3Cc3ccccc3)c2c1=O [B, 3-benzyl-6-benzyloxy-2,3,6,9-tetrahydro-2,9-dioxothiazolo[5,4-f]quinoline-8-carboxylic acid] | 0.78 (≈ 1.7 µM) | > 200 | > 200 | > 200 | > 200 | 1.56 (≈ 3.4 µM) | > 200 | – | – | – | – | MIC [3]: 1.56 µg/mL (≈ 3.4 µM); MIC (Sarcina lutea PCI 1001): 1.56 µg/mL (≈ 3.4 µM); MIC [6]: 3.13 µg/mL (≈ 6.83 µM); MIC [8]: 1.56 µg/mL (≈ 3.4 µM); inhibitory activity on gram-positive bacteria [9]: exhibited inhibitory activity on gram-positive bacteria
C=CCOn1cc(C(=O)O)c(=O)c2c3sc(=O)n(CC=C)c3ccc21 [C, 2,3,6,9-tetrahydro-3-allyl-6-allyloxy-2,9-dioxothiazolo[5,4-f]quinoline-8-carboxylic acid] | – | 100 (≈ 279 µM) | 3.13 (≈ 8.73 µM) | > 200 | > 200 | 50 (≈ 140 µM) | 200 (≈ 558 µM) | showed antibacterial activities on gram-negative bacteria | – | – | – | –
COn1cc(C(=O)O)c(=O)c2c3sc(=O)n(C)c3ccc21 [Compound A, 2,3,6,9-Tetrahydro-6-methoxy-3-methyl-2,9-dioxothiazolo[5,4-f]quinoline-8-carboxylic acid] | 0.5 (≈ 1.63 µM) | 0.2 (≈ 0.653 µM) | 0.1 (≈ 0.326 µM) | 0.39 (≈ 1.27 µM) | 25 (≈ 81.6 µM) | 12.5 (≈ 40.8 µM) | 0.2 (≈ 0.653 µM) | showed antibacterial activities on gram-negative bacteria | 50 | > 20 | 14 | effectiveness in protecting mice against E. Coli No. 34, compared with Compound (D) (Escherichia coli No. 34; oral, comparison in words): more effective than Compound (D); effectiveness in protecting mice against P. Mirabilis GN 2425, compared with Compound (D) ([10]; oral, comparison in words): more effective than Compound (D); time at which serum levels reached a maximum [11]: within an hour; peak serum value relative to Compound (D) ([11]; times higher than Compound (D)): about 12 times; macroscopic examinations [12]: no abnormal findings were observed; symptoms [12]: No significant symptoms were observed; urinalysis (pH, protein, glucose, ketone bodies and occult blood) [12]: no abnormality was found; body weight ([12]; at all doses): did not decrease; body weight-gain ([12]; at all doses): slightly decreased; dose excreted at 24 h ([13]; rat, urine, after 24 hours, read-out: Recovery rates in the urine): 2%; excretion in the urine, times faster than Compound (D) [13]: about 7 times; urinary concentration compared with Compound (D) ([13]; in words): superior to Compound (D); urinary recovery rate compared with Compound (D) ([13]; in words): superior to Compound (D); activity in vitro compared with Compound (D) (gram-negative bacteria; comparison in words): as active as Compound (D); activity in vitro compared with Compound (E) (gram-negative bacteria; comparison with nalidixic acid in words): more active than Compound (E)
CCn1cc(C(=O)O)c(=O)c2c3sc(=O)n(C)c3ccc21 [Compound D, 6-ethyl-2,3,6,9-tetrahydro-3-methyl-2,9-dioxothiazolo[5,4-f]quinoline-8-carboxylic acid, reference compound] | 0.25 (≈ 0.821 µM) | 0.2 (≈ 0.657 µM) | 0.1 (≈ 0.329 µM) | 0.78 (≈ 2.56 µM) | > 200 | 12.5 (≈ 41.1 µM) | 0.2 (≈ 0.657 µM) | – | > 100 | > 40 | > 40 | antibacterial activity in vivo [14]: does not possess a sufficient antibacterial activity in vivo; antibacterial activity in vitro [15]: noticeable antibacterial activity in vitro; activities on the organism tested in vivo (organism tested): did not show activities on the organism tested
CCn1cc(C(=O)O)c(=O)c2ccc(C)nc21 [E, nalidixic acid, reference compound] | – | – | – | – | – | – | – | – | – | – | – | MIC (Escherichia coli NIHJ; Escherichia coli): 3.13 µg/mL (≈ 13.5 µM); MIC (Proteus vulgaris HX-19; Proteus vulgaris, HX19, read-out: In vitro Antibacterial Activities): 0.78 µg/mL (≈ 3.36 µM); MIC ([2]; Proteus mirabilis, GN2425, read-out: In vitro Antibacterial Activities): 6.25 µg/mL (≈ 26.9 µM); MIC ([4]; Pseudomonas aeruginosa, 104, read-out: In vitro Antibacterial Activities): > 200 µg/mL; MIC ([5]; Staphylococcus aureus, 209P): 100 µg/mL (≈ 431 µM); MIC ([7]; Klebsiella pneumoniae, PCI602, read-out: In vitro Antibacterial Activities): 3.13 µg/mL (≈ 13.5 µM)
CCOC(=O)c1c[n+]([O-])c2ccc3nc(Cl)sc3c2c1Cl [F, ethyl 2,9-dichlorothiazolo[5,4-f]quinoline-8-carboxylate-6-oxide] | – | – | – | – | – | – | – | – | – | – | – | MIC (Aspergillus niger): 25 µg/mL (≈ 72.8 µM); MIC (Trichophyton rubrum): 0.78 µg/mL (≈ 2.27 µM); inhibitory activity on the fungi tested ([16]; Sabourand agar, result in words): exhibited inhibitory activity on the fungi tested; antifungal activity in vitro relative to griseofulvin ([16]; in vitro, comparison in words): twice as active than griseofulvin
